Laboratory results taken from EP0429372A1, “2-Azolyl nicotinate derivatives as herbicides” (RHONE-POULENC AGROCHIMIE, priority 1989, dated 1991).

Key:
Type in all cases: in vivo
Digitaria sanguinalis = assay: Example B: post-emergence herbicidal application, pot test
Excerpt: (§1) Dans des pots de 7 x 7 x 8 cm remplis de terre agricole légère, on sème un nombre de graines déterminé en fonction de l'espèce végétale et de la grosseur de la graine.
(§2) On recouvre ensuite les graines d'une couche de terre d'environ 3 mm d'épaisseur et on laisse germer la graine jusqu'à ce qu'elle donne naissance à une plantule au stade convenable. Le stade de traitement pour les graminées est le stade "deuxième feuille en formation ". Le stade de traitement pour les dicotylédones, est le stade "cotylédons étalés, première feuille vraie en développement".
(§3) Les pots sont alors traités par pulvérisation de bouillie en quantité correspondant à une dose volumique d'application de 500 l/ha et contenant la matière active à la concentration désirée.
(§4) La bouille a été préparée de la même manière qu'à l'exemple A.
(§5) Les pots traités sont ensuite placés dans des bacs destinés à recevoir l'eau d'arrosage, en subirrigation, et maintenus pendant 24 jours à température ambiante sous 70 % d'humidité relative.
(§6) Au bout de 24 jours, on mesure un pourcentage (D) de destruction du nombre de pieds dans le pot traité par rapport au nombre de plantes dans les pots non traités (témoin). On mesure, sur les plantes traitées restantes, le pourcentage de réduction de taille (RT) par rapport aux plantes témoin.
(§7) Le pourcentage du volume foliaire non détruit par le produit est donc donné par la formule : [formula]
(§8) Cette valeur A est transformée en notation de 0 à 5 selon l'échelle suivante :
(§9) Les résultats obtenus sont présentés après le tableau A pour des doses d'application de 4000 g/ha.

Ipomea purpurea = assay: as above
Excerpt: as §1, §2, §3, §4, §5, §6, §7, §8, §9

Echinochloa crusgalli = assay: as above; settings: 4000 g/ha, 576 h
Excerpt: as §1, §2, §3, §4, §5, §6, §7, §8, §9

Solanum nigrum [1] = assay: as above
Excerpt: as §1, §2, §3, §4, §5, §6, §7, §8, §9

Lolium multiflorum = assay: as above
Excerpt: as §1, §2, §3, §4, §5, §6, §7, §8, §9

Sinapis alba [2] = assay: as above
Excerpt: as §1, §2, §3, §4, §5, §6, §7, §8, §9

Oryza sativa = assay: Example C: selectivity test in major crops, post-emergence application; settings: crop (Riz), 24 days, score 0-5, 0 or 1 = selective; also: ranges in brackets are in %
Excerpt: as §1
as §2, with “formation".” for “formation ".”
as §3
(§10) La bouillie a été préparée de la même manière qu'à l'exemple A.
as §5, §6
(§11) Le pourcentage de volume foliaire non détruit par le produit est donc donné par la formule : [formula]
as §8
(§12) Ainsi, un produit est jugé comme sélectif vis à vis de la culture lorsque la valeur A notée est de 0 ou 1.
(§13) Les résultats obtenus sont présentés dans l'exemple C pour des doses d'application comprises entre 0,5 et 4 kg de matière active par hectare selon les produits.

Ipomea pupurea = assay: as above
Excerpt: as §1
as §2, with “formation".” for “formation ".”
as §3, §10, §5, §6, §11, §8, §12, §13

Triticum aestivum = assay: as above; settings: crop (Blé), 24 days, score 0-5, 0 or 1 = selective; also: ranges in brackets are in %
Excerpt: as §1
as §2, with “formation".” for “formation ".”
as §3, §10, §5, §6, §11, §8, §12, §13

Solanum nigrum [3] = assay: as above
Excerpt: as §1
as §2, with “formation".” for “formation ".”
as §3, §10, §5, §6, §11, §8, §12, §13

Sesbania exaltata = assay: as above
Excerpt: as §1
as §2, with “formation".” for “formation ".”
as §3, §10, §5, §6, §11, §8, §12, §13

Zea mays = assay: as above; settings: crop (Maïs), 24 days, score 0-5, 0 or 1 = selective; also: ranges in brackets are in %
Excerpt: as §1
as §2, with “formation".” for “formation ".”
as §3, §10, §5, §6, §11, §8, §12, §13

Sinapis alba [4] = assay: as above
Excerpt: as §1
as §2, with “formation".” for “formation ".”
as §3, §10, §5, §6, §11, §8, §12, §13

Xanthium pennsylvanicum = assay: as above
Excerpt: as §1
as §2, with “formation".” for “formation ".”
as §3, §10, §5, §6, §11, §8, §12, §13

[5] = 4 kg/ha, rated after 24 days, score 0-5 from % leaf volume not destroyed
[6] = weed, dose 2 kg/ha, 24 days, score 0-5

SMILES: CN(C)S(=O)(=O)n1nc(-c2ccccc2)nc1-c1ncccc1C(=O)O [compound 1, Sel d'isopropylamine de 3 -(3 - carboxy 2 - pyridyl) 2 - N,N dimethyl sulfamoyl 5 - phényl 1,2,4 - triazole]
- ACTIVITE DE POST-LEVEE DIG (Digitaria sanguinalis; 4000 g/ha, 576 h): 0 (90 à 100)
- ACTIVITE DE POST-LEVEE IPO (Ipomea purpurea; 4000 g/ha, 576 h): 3 (30 à 50)
- ACTIVITE DE POST-LEVEE ECH (Echinochloa crusgalli): 0 (90 à 100)
- ACTIVITE DE POST-LEVEE SOL (Solanum nigrum [1]; 4000 g/ha, 576 h): 5 (O à 10)
- ACTIVITE DE POST-LEVEE LOL (Lolium multiflorum; 4000 g/ha, 576 h): 0 (90 à 100)
- ACTIVITE DE POST-LEVEE SIN (Sinapis alba [2]; 4000 g/ha, 576 h): 5 (O à 10)
- ACTIVITE HERBICIDE DE POST LEVEE O R Y (Oryza sativa; dose 1 kg/ha): 0 (90 à 100)
- ACTIVITE HERBICIDE DE POST LEVEE I P O (Ipomea pupurea; 1000 g/ha, 576 h): 4 (10 à 30)
- ACTIVITE HERBICIDE DE POST LEVEE T R Z (Triticum aestivum; dose 1 kg/ha): 0 (90 à 100)
- ACTIVITE HERBICIDE DE POST LEVEE S O L (Solanum nigrum [3]; 1000 g/ha, 576 h): 5 (O à 10)
- ACTIVITE HERBICIDE DE POST LEVEE S E S (Sesbania exaltata; 1000 g/ha, 576 h): 5 (O à 10)
- ACTIVITE HERBICIDE DE POST LEVEE Z E A (Zea mays; dose 1 kg/ha): 0 (90 à 100)
- ACTIVITE HERBICIDE DE POST LEVEE S I N (Sinapis alba [4]; 1000 g/ha, 576 h): 5 (O à 10)
- ACTIVITE HERBICIDE DE POST LEVEE X A N (Xanthium pennsylvanicum; 1000 g/ha, 576 h): 4 (10 à 30)

SMILES: CN(C)S(=O)(=O)n1nc(-c2ccccc2)nc1-c1ncccc1C(=O)O [compound 7, Acide 3 - (3 - carboxy 2 - pyridyl) 2 - N,N - diméthyl sulfamoyl 5 - phényl 1,2,4 -triazole]
- ACTIVITE DE POST-LEVEE DIG (Digitaria sanguinalis; [5]): 1 (70 à 90)
- ACTIVITE DE POST-LEVEE IPO (Ipomea purpurea; [5]): 4 (10 à 30)
- ACTIVITE DE POST-LEVEE SOL (Solanum nigrum [1]; [5]): 5 (O à 10)
- ACTIVITE DE POST-LEVEE LOL (Lolium multiflorum; [5]): 1 (70 à 90)
- ACTIVITE DE POST-LEVEE SIN (Sinapis alba [2]; [5]): 5 (O à 10)
- ACTIVITE HERBICIDE DE POST LEVEE O R Y (Oryza sativa; dose 2 kg/ha): 0 (90 à 100)
- ACTIVITE HERBICIDE DE POST LEVEE I P O (Ipomea pupurea; weed, post-emergence, dose 2 kg/ha, 24 days, score 0-5): 4 (10 à 30)
- ACTIVITE HERBICIDE DE POST LEVEE T R Z (Triticum aestivum; dose 2 kg/ha): 0 (90 à 100)
- ACTIVITE HERBICIDE DE POST LEVEE S O L (Solanum nigrum [3]; [6]): 4 (10 à 30)
- ACTIVITE HERBICIDE DE POST LEVEE S E S (Sesbania exaltata; [6]): 5 (O à 10)
- ACTIVITE HERBICIDE DE POST LEVEE Z E A (Zea mays; dose 2 kg/ha): 0 (90 à 100)
- ACTIVITE HERBICIDE DE POST LEVEE S I N (Sinapis alba [4]; [6]): 5 (O à 10)
- ACTIVITE HERBICIDE DE POST LEVEE X A N (Xanthium pennsylvanicum; [6]): 4 (10 à 30)
